# Data as given in patent US6908909B2, “Liquid oral compositions comprising a calcium compound and an acidulant” (SmithKline Beecham plc, priority 1996, dated 2005).
# Experiment: In-vitro study of phosphorus liberated from teeth exposed to citric acid solutions
# Conditions: for Mean amount Phosphorus liberated (μg) ± 1 SD: 0.3% citric acid
# Protocol: To investigate the importance of calcium supplementation on exposure of enamel to citric acid solutions, five experiments were undertaken, each using eight teeth. The teeth were first subjected to prophylaxis, washed with saline and then covered in an acid resistant wax with the exception of a 5 mm diameter experimental window.
# In each experiment the teeth were subjected to six consecutive 5 min exposures with 0.3% citric acid solutions at a flow rate of 0.1 ml/min. The citric acid solutions were supplemented with either 0.0, 0.5, 1.5, 2.5, 5.0, 7.5 10 or 15 mM calcium in the form of calcium hydroxide and the pH was adjusted to 3.5 or 3.8 using 1.0 M sodium hydroxide. Samples of residual citric acid were collected after every 5 min exposure of the teeth and these were frozen at −4° C., prior to phosphorus analysis by the method of Chen et al (1956) Analytical Chemistry, Vol.28, p1956-8.
Structure (SMILES),"Mean amount Phosphorus liberated (μg) ± 1 SD (calcium 0 mM (mol ratio calcium:acid 0.00), pH 3.5)","Mean amount Phosphorus liberated (μg) ± 1 SD (calcium 0 mM (mol ratio calcium:acid 0.00), pH 3.8)","Mean amount Phosphorus liberated (μg) ± 1 SD (calcium 0.5 mM (mol ratio calcium:acid 0.03), pH 3.5)","Mean amount Phosphorus liberated (μg) ± 1 SD (calcium 0.5 mM (mol ratio calcium:acid 0.03), pH 3.8)","Mean amount Phosphorus liberated (μg) ± 1 SD (calcium 1.5 mM (mol ratio calcium:acid 0.10), pH 3.5)","Mean amount Phosphorus liberated (μg) ± 1 SD (calcium 1.5 mM (mol ratio calcium:acid 0.10), pH 3.8)","Mean amount Phosphorus liberated (μg) ± 1 SD (calcium 2.5 mM (mol ratio calcium:acid 0.17), pH 3.5)","Mean amount Phosphorus liberated (μg) ± 1 SD (calcium 2.5 mM (mol ratio calcium:acid 0.17), pH 3.8)","Mean amount Phosphorus liberated (μg) ± 1 SD (calcium 5 mM (mol ratio calcium:acid 0.35), pH 3.5)","Mean amount Phosphorus liberated (μg) ± 1 SD (calcium 5 mM (mol ratio calcium:acid 0.35), pH 3.8)","Mean amount Phosphorus liberated (μg) ± 1 SD (calcium 7.5 mM (mol ratio calcium:acid 0.52), pH 3.5)","Mean amount Phosphorus liberated (μg) ± 1 SD (calcium 7.5 mM (mol ratio calcium:acid 0.52), pH 3.8)","Mean amount Phosphorus liberated (μg) ± 1 SD (calcium 10 mM (mol ratio calcium:acid 0.70), pH 3.5)","Mean amount Phosphorus liberated (μg) ± 1 SD (calcium 10 mM (mol ratio calcium:acid 0.70), pH 3.8)","Mean amount Phosphorus liberated (μg) ± 1 SD (calcium 15 mM (mol ratio calcium:acid 1.05), pH 3.5)","Mean amount Phosphorus liberated (μg) ± 1 SD (calcium 15 mM (mol ratio calcium:acid 1.05), pH 3.8)","effect on erosive potential of a 0.3% citric acid solution (in words) (addition of calcium to 0.3% citric acid solution, effect greatest up to calcium to acid molar ratio of about 0.5)"
"O=C(O)CC(O)(CC(=O)O)C(=O)O [citric acid, reference compound]",1.41 ± 0.11 µg,1.26 ± 0.17 µg,–,–,–,–,–,–,–,–,–,–,–,–,–,–,–
"[Ca+2].[OH-].[OH-] [calcium, calcium hydroxide]",–,–,1.25 ± 0.14 µg,1.02 ± 0.09 µg,1.07 ± 0.15 µg,0.83 ± 0.12 µg,1.22 ± 0.14 µg,0.63 ± 0.13 µg,0.79 ± 0.06 µg,0.46 ± 0.13 µg,0.72 ± 0.1 µg,0.32 ± 0.10 µg,0.46 ± 0.13 µg,0.24 ± 0.11 µg,0.3 ± 0.10 µg,0.14 ± 0.07 µg,reduces its erosive potential
